Assays:
Type in all cases: in vivo
[1] = system: giant foxtail (Setaria faberii); assay: Test A postemergence; conditions: Setaria faberi, post-emergence, 240 h
How it was run: (§1)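 Preemergence directed soil spray on seeded pots, or postemergence application to plants 2–10 cm, one- to two-leaf. Solvent mixture non-phytotoxic, with surfactant. Scored ~10 d later, visually, 0–100 vs untreated.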

[2] = system: blackgrass (Alopecurus myosuroides); assay: Test A postemergence; conditions: Alopecurus myosuroides, post-emergence, 240 h
How it was run: as §1

[3] = system: wheat (Triticum aestivum); assay: Test A postemergence; conditions: Triticum aestivum, post-emergence, 240 h
How it was run: as §1

[4] = system: pigweed (Amaranthus retroflexus); assay: Test A postemergence; conditions: Amaranthus retroflexus, post-emergence, 240 h
How it was run: as §1

[5] = system: barnyardgrass (Echinochloa crus-galli); assay: Test A postemergence; conditions: Echinochloa crus-galli, post-emergence, 240 h
How it was run: as §1

[6] = system: Kochia (Kochia scoparia); assay: Test A postemergence; conditions: Bassia scoparia, post-emergence, 240 h
How it was run: as §1

[7] = system: Galium (catchweed bedstraw, Galium aparine); assay: Test A postemergence; conditions: Galium, post-emergence, 240 h
How it was run: as §1

[8] = system: ryegrass, Italian (Italian ryegrass, Lolium multiflorum); assay: Test A postemergence; conditions: Lolium multiflorum, post-emergence, 240 h
How it was run: as §1

[9] = system: ragweed (common ragweed, Ambrosia elatior); assay: Test A postemergence; conditions: Ambrosia artemisiifolia, post-emergence, 240 h
How it was run: as §1

[10] = system: corn (Zea mays); assay: Test A postemergence; conditions: Zea mays, post-emergence, 240 h
How it was run: as §1

[11] = system: rice (Oryra sativa); assay: Test B flooded paddy test; conditions: Oryza sativa, 250 g ai/ha, Flood; 0 to 100 scale where 0 is no effect and 100 is complete control; read-out: Rice plant response rating
How it was run: (§2)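 Evaluation by eye, against controls, occurred 13–15 d post-treatment in a greenhouse, using a 0 (no effect) to 100 (complete control) scale. Application was into the paddy water, 3 cm deep over the soil, on 2-leaf plants.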

[12] = system: sedge, umbrella (small-flower umbrella sedge, Cyperus difformis); assay: Test B flooded paddy test; conditions: Cyperus difformis, 250 g ai/ha, Flood; 0 to 100 scale where 0 is no effect and 100 is complete control; read-out: Sedge, Umbrella plant response rating
How it was run: as §2

[13] = system: barnyardgrass (Echinochloa crus-galli); assay: Test B flooded paddy test; conditions: Echinochloa crus-galli, 250 g ai/ha, Flood; 0 to 100 scale where 0 is no effect and 100 is complete control; read-out: Barnyardgrass plant response rating
How it was run: as §2

[14] = system: ducksalad (Heteranthera limosa); assay: Test B flooded paddy test; conditions: Heteranthera limosa, 250 g ai/ha, Flood; 0 to 100 scale where 0 is no effect and 100 is complete control; read-out: Ducksalad plant response rating
How it was run: as §2

[15] = system: giant foxtail (Setaria faberii); assay: Test A preemergence; conditions: Setaria faberi, pre-emergence, 240 h, 0 to 100 scale where 0 is no effect and 100 is complete control, read-out: Foxtail, Giant plant response rating
How it was run: as §1

[16] = system: pigweed (Amaranthus retroflexus); assay: Test A preemergence; conditions: Amaranthus retroflexus, pre-emergence, 240 h, 0 to 100 scale where 0 is no effect and 100 is complete control, read-out: Pigweed plant response rating
[17] = system: barnyardgrass (Echinochloa crus-galli); assay: Test A preemergence; conditions: Echinochloa crus-galli, pre-emergence, 240 h, 0 to 100 scale where 0 is no effect and 100 is complete control, read-out: Barnyardgrass plant response rating
How it was run: as §1

[18] = system: Kochia (Kochia scoparia); assay: Test A preemergence; conditions: Bassia scoparia, pre-emergence, 240 h, 0 to 100 scale where 0 is no effect and 100 is complete control, read-out: Kochia plant response rating
How it was run: as §1

[19] = system: ryegrass, Italian (Italian ryegrass, Lolium multiflorum); assay: Test A preemergence; conditions: Lolium multiflorum, pre-emergence, 240 h, 0 to 100 scale where 0 is no effect and 100 is complete control, read-out: Ryegrass, Italian plant response rating
How it was run: as §1

[20] = system: ragweed (common ragweed, Ambrosia elatior); assay: Test A preemergence; conditions: Ambrosia artemisiifolia, pre-emergence, 240 h, 0 to 100 scale where 0 is no effect and 100 is complete control, read-out: Ragweed plant response rating
How it was run: as §1

[21] = 125 g ai/ha, preemergence, approx. 10 d

CN1C[C@H](c2csc3c2CCC3)[C@@H](C(=O)Nc2ccc(F)c(F)c2F)C1=O [Compound 1081]
30%: pest or weed control at 31 g/ha ([5]; Postemergence, 31 g ai/ha, visual injury after approx. 10 d, 0 to 100 scale, 0 no effect, 100 complete control, read-out: Plant response rating, Barnyardgrass) | pest or weed control at 125 g/ha [18, 21]
90%: pest or weed control at 125 g/ha ([5]; 125 g ai/ha, postemergence, visual injury on 0 to 100 scale (0 no effect, 100 complete control), approx. 10 d, read-out: Barnyardgrass plant response rating) | pest or weed control at 250 g/ha [13] | pest or weed control at 125 g/ha [17, 21]
80%: pest or weed control at 125 g/ha ([1]; 125 g ai/ha, postemergence, visual injury on 0 to 100 scale (0 no effect, 100 complete control), approx. 10 d, read-out: Foxtail, Giant plant response rating) | pest or weed control at 250 g/ha [14]
0%: pest or weed control at 125 g/ha ([2]; 125 g ai/ha, postemergence, visual injury on 0 to 100 scale (0 no effect, 100 complete control), approx. 10 d, read-out: Blackgrass plant response rating) | pest or weed control at 31 g/ha ([2]; Postemergence, 31 g ai/ha, visual injury after approx. 10 d, 0 to 100 scale, 0 no effect, 100 complete control, read-out: Plant response rating, Blackgrass) | plant injury at 31 g/ha ([3]; Postemergence, 31 g ai/ha, visual injury after approx. 10 d, 0 to 100 scale, 0 no effect, 100 complete control, read-out: Plant response rating, Wheat) | pest or weed control at 125 g/ha ([4]; 125 g ai/ha, postemergence, visual injury on 0 to 100 scale (0 no effect, 100 complete control), approx. 10 d, read-out: Pigweed plant response rating) | pest or weed control at 31 g/ha ([4]; Postemergence, 31 g ai/ha, visual injury after approx. 10 d, 0 to 100 scale, 0 no effect, 100 complete control, read-out: Plant response rating, Pigweed) | pest or weed control at 125 g/ha ([6]; 125 g ai/ha, postemergence, visual injury on 0 to 100 scale (0 no effect, 100 complete control), approx. 10 d, read-out: Kochia plant response rating) | pest or weed control at 31 g/ha ([6]; Postemergence, 31 g ai/ha, visual injury after approx. 10 d, 0 to 100 scale, 0 no effect, 100 complete control, read-out: Plant response rating, Kochia) | pest or weed control at 31 g/ha ([7]; Postemergence, 31 g ai/ha, visual injury after approx. 10 d, 0 to 100 scale, 0 no effect, 100 complete control, read-out: Plant response rating, Galium) | pest or weed control at 125 g/ha ([8]; 125 g ai/ha, postemergence, visual injury on 0 to 100 scale (0 no effect, 100 complete control), approx. 10 d, read-out: Ryegrass, Italian plant response rating) | pest or weed control at 31 g/ha ([8]; Postemergence, 31 g ai/ha, visual injury after approx. 10 d, 0 to 100 scale, 0 no effect, 100 complete control, read-out: Plant response rating, Ryegrass, Italian) | pest or weed control at 125 g/ha ([9]; 125 g ai/ha, postemergence, visual injury on 0 to 100 scale (0 no effect, 100 complete control), approx. 10 d, read-out: Ragweed plant response rating) | pest or weed control at 31 g/ha ([9]; Postemergence, 31 g ai/ha, visual injury after approx. 10 d, 0 to 100 scale, 0 no effect, 100 complete control, read-out: Plant response rating, Ragweed) | Corn plant response rating (crop injury, 0 = no effect, 100 = complete kill) at 31 g/ha ([10]; Postemergence, 31 g ai/ha, visual injury after approx. 10 d, 0 to 100 scale, 0 no effect, 100 complete control) | pest or weed control at 250 g/ha [12] | pest or weed control at 31 g/ha ([16]; 31 g ai/ha, Preemergence) | pest or weed control at 125 g/ha [16, 21] | pest or weed control at 31 g/ha ([19]; 31 g ai/ha, Preemergence) | pest or weed control at 125 g/ha [19, 21] | pest or weed control at 31 g/ha ([20]; 31 g ai/ha, Preemergence) | pest or weed control at 125 g/ha [20, 21]
40%: pest or weed control at 250 g/ha [11]
100%: pest or weed control at 31 g/ha ([15]; 31 g ai/ha, Preemergence) | pest or weed control at 125 g/ha [15, 21]
20%: plant injury at 125 g/ha ([3]; 125 g ai/ha, postemergence, visual injury on 0 to 100 scale (0 no effect, 100 complete control), approx. 10 d, read-out: Wheat plant response rating) | pest or weed control at 125 g/ha ([7]; 125 g ai/ha, postemergence, visual injury on 0 to 100 scale (0 no effect, 100 complete control), approx. 10 d, read-out: Galium plant response rating) | plant injury at 125 g/ha ([10]; 125 g ai/ha, postemergence, visual injury on 0 to 100 scale (0 no effect, 100 complete control), approx. 10 d, read-out: Corn plant response rating) | pest or weed control at 31 g/ha ([18]; 31 g ai/ha, Preemergence)
10%: pest or weed control at 31 g/ha ([1]; Postemergence, 31 g ai/ha, visual injury after approx. 10 d, 0 to 100 scale, 0 no effect, 100 complete control, read-out: Plant response rating, Foxtail, Giant) | pest or weed control at 31 g/ha ([17]; 31 g ai/ha, Preemergence)
